Measured values reported in patent publication US20260327211A1, “MODULATORS OF A POTASSIUM CHANNEL AND OF TRPV1 CHANNEL AND USES THEREOF” (Bsense Bio Therapeutics Ltd., priority 2023, published 2026).
Where “and” joins values, the source holds several entries; their conditions need not be identical. Equal values may be shown once. Read-outs that look alike come from different tables or passages of the source.

What was measured:
CYP3A4 = assay: CYP inhibition / time-dependent inhibition, CYP3A4_Midazolam; type: in vitro ADME, human; details: for TDI related reactive metabolite: Table 11
Experimental: (§1) The time-dependent inactivation potency of the test compound to CYP enzymatic activities was assessed by the pre-incubation of the human liver microsomes with the test compound in the presence and absence of NADPH, followed by the incubation with the discrete marker substrates, as follows.
(§2) Pre-incubation with human liver microsomes (HLMs): The TDI inactivation potency on CYP enzymatic activities was evaluated through pre-incubation with HLMs (Corning). A liver microsome mixture at a concentration of 0.1 mg/mL, and the test compound at 8 different concentrations (0, 0.05, 0.165, 0.5, 1.65, 5.0, 16.5, or 50.0 μM) was warmed at 37° C. for 10 minutes. Concurrently, a set of known time-dependent inactivators was also prepared in duplicate for comparison. Following this, NADPH (1.0 mM) was added to one group (Group 1), and an equal volume of potassium phosphate buffer to the second group (Group 2), marking the beginning of a 30-minute pre-incubation at 37° C.
(§3) Incubation: After pre-incubation, the marker substrate, or marker substrate plus NADPH was added to the mixture, thereby initiating the incubation. The duration of the incubation was dependent on the type of CYP isoform being evaluated. For example, with the CYP3A isoform, the mixture was incubated over 3 minutes utilizing midazolam as the marker substrate (2.0 μM), verapamil as the standard inactivator (3.5 μM).
(§4) Termination of Reaction: Following the incubation, ice-cooled acetonitrile containing the internal standard (IS) was added to halt the reactions. Metabolites generated from the marker substrates were then measured via LC-MS/MS, assessed based on peak area ratios of the analyte to IS.

hTRPV1 = target: T1, hTRPV1 (Homo sapiens, UniProt Q8NER1); assay: hTRPV1 dual activity electrophysiology, CHO cells co-expressing hKv7.2/3 and hTRPV1; type: cell-based
T1 construct: CDS of NM_080704.4, inserted into the multiple cloning site of pcDNA3.1(+); host or cells: CHO/hKv7.2/3

CYP2C8 = target: T2, CYP2C8 (Homo sapiens, UniProt P10632); assay: CYP inhibition / time-dependent inhibition, CYP2C8_Amodiaquine; type: in vitro ADME; details: role: inhibitor
T2 construct: pre-incubation of the human liver microsomes with the test compound; tissue Corning; host or cells: human liver microsomes
T2 sequence (P10632 1-490): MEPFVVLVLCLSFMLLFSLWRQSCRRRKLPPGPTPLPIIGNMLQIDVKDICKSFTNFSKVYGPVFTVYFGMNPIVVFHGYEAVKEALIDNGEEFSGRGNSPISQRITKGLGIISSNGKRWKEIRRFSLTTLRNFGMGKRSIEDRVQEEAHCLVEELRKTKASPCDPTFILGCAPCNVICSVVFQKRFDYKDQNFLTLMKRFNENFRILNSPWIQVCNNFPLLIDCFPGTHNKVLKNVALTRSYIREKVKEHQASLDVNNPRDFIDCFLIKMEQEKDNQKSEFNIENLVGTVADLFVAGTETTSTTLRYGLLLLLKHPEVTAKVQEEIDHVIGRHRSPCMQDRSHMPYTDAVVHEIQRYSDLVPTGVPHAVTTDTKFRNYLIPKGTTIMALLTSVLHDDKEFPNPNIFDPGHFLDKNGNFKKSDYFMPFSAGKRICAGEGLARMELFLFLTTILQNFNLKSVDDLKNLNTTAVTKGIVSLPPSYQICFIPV
Experimental: as §1, §2, §3, §4

opioid delta receptor = target: T3, opioid delta receptor (Homo sapiens, UniProt P41143); assay: Functional selectivity panel, opioid delta receptor; type: biochemical
T3 construct: Eurofins DiscoverX, USA
Experimental: A broad panel of 78 recombinant targets was tested for pharmacologic activity in vitro through a variety of functional assays (Eurofins DiscoverX, USA), as part of the National Institute of Neurological Disorders and Stroke (NINDS) Preclinical Screening Platform for Pain (PSPP) program. The biological targets for the in vitro profiling have been selected based on avoiding opioid receptor stimulation and targets known to be associated with adverse events or targeted by drugs of abuse. […] For each test, a reference compound was evaluated at the target of interest as a positive control.

[1] = Dual hTRPV1 / Dual Expressing CHO, CAP IC50, Kv7.2/3 co-expressed and activated, capsaicin

T1 sequence (Q8NER1 whole entry): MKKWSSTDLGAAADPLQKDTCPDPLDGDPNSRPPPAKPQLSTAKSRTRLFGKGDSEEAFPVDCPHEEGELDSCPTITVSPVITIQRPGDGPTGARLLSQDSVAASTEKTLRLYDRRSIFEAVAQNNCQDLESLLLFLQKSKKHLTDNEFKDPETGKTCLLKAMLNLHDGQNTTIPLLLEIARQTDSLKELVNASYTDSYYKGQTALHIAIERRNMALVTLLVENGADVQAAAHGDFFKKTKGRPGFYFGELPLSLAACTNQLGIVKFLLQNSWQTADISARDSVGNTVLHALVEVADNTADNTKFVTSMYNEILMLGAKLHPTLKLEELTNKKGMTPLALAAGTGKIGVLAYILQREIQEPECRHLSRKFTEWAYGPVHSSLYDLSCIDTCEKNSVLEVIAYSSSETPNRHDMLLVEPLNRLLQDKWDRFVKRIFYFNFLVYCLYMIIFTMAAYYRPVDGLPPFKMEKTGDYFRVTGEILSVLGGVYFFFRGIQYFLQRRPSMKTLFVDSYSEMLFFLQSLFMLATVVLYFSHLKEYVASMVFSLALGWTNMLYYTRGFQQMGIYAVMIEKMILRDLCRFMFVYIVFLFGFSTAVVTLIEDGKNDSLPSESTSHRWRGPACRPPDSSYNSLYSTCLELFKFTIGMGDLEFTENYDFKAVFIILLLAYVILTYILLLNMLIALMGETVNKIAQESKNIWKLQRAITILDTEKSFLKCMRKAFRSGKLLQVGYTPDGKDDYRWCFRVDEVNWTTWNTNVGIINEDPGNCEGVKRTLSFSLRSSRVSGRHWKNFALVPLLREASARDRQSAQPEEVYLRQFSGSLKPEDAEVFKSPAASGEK
T3 sequence (P41143 whole entry): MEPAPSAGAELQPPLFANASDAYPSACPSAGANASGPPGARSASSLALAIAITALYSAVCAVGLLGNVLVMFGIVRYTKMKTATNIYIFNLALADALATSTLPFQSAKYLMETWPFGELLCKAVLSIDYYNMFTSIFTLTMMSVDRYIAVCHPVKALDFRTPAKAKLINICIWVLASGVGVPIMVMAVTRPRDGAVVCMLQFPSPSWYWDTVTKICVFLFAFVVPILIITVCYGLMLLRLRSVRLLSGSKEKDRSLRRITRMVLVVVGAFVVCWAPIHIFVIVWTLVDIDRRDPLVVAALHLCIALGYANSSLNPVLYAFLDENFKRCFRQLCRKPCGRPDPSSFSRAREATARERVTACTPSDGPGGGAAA

## Cc1cn(-c2ccc(F)c(CC(=O)NCC(C)(C)O)c2)c2c(Cl)cc(Cl)cc12 [Compound 421]
CYP3A4
  TDI related reactive metabolite: Yes

## O=C(Cc1cc(-n2cc(Cl)c3cc(Cl)cc(Cl)c32)ccc1F)NCCO [Compound 627]
hTRPV1; [1]
  IC50: 0.26 nM and 0.27 nM
CYP3A4
  TDI related reactive metabolite: Yes

## O=C(Cc1cncc(-n2cc(Cl)c3cc(Cl)cc(Cl)c32)c1)N[C@@H]1COC[C@H]1O [Compound 661]
hTRPV1; 0.01 nM
  TRPV1 inhibition, dual-expressing CHO: mild inhibition
hTRPV1; 0.1 nM
  TRPV1 inhibition, dual-expressing CHO: inhibited
hTRPV1; [1]
  IC50: 0.07 nM and 0.068 nM
hTRPV1; cho cells
  Potency in dual-expressing CHO vs CHO expressing only TRPV1: > 200,000 fold
CYP2C8; (+)NADPH pre-incubation, substrate amodiaquine, read-out: IC50 (+)NADPH CYP2C8_Amodiaquine
  IC50: 16500 nM
CYP2C8; (−)NADPH pre-incubation, substrate amodiaquine, read-out: IC50 (−)NADPH CYP2C8_Amodiaquine
  IC50: 14300 nM
CYP3A4
  TDI related reactive metabolite: Yes
Opioid delta receptor
  IC50: 10000 nM

## O=C(Cc1nccc(-n2cc(Cl)c3cc(Cl)cc(Cl)c32)n1)NC1COCC1O (stereo not drawn) [Compound 760]
hTRPV1; CHO, read-out: hTRPV1 current inhibition
  inhibition at 100 µM: 46 ± 13.7%
hTRPV1; [1]
  IC50: 0.201 nM
hTRPV1; IC50 of hTRPV1 current inhibition in CHOs with both targets co-expressed and activated, EP
  IC50: ~0.1 nM
CYP2C8; Table 9, read-out: CYP inhibition IC50 CYP2C8
  IC50: 49200 nM
CYP3A4
  TDI related reactive metabolite: No
CYP3A4; role: inhibitor, up to 20 micromolar
  CYP inhibition / TDI, all CYPs of Table 9: did not show significant CYP inhibition or time-dependent inhibition (TDI)
Opioid delta receptor; up to 10 micromolar
  Effect on Opioid-delta: no effect

## O=C(Cc1ccnc(-n2cc(Cl)c3cc(Cl)cc(Cl)c32)n1)N[C@@H]1COC[C@H]1O [Compound 820]
hTRPV1; [1]
  IC50: 48 nM
CYP3A4; role: inhibitor, substrate midazolam 2.0 μM, CYP TDI ratio
  CYP-TDI (midazolam), (−)NADPH/(+)NADPH Ratio CYP3A4: <0.9

## O=C(Cc1cc(-n2cc(C(F)(F)F)c3cc(Cl)cc(Cl)c32)ncn1)NCCO [Compound 843]
hTRPV1; [1]
  IC50: 0.528 nM
